# Source: patent US20240148674A1, “PHARMACEUTICALLY ACCEPTABLE SALTS OF MESDOPETAM AND USES THEREOF” (priority 2020, published 2024)
# Structures can show the parent of a compound that is named as a salt. Where two headings read alike, the source gives them in different places.
# Experiments:
# [1] = test system: unilateral 6-OHDA-lesioned rats; assay: Rodent unilateral 6-OHDA lesion model of L-DOPA sensitization, rotation test by ROTORAT; format: in vivo, Sprague Dawley rats; details: for Contralateral turns, test compound given alone: without L-DOPA, 0-2.5 h
# Description: The unilateral 6-OHDA lesion model is an established animal model of Parkinson's disease (see e.g. Exp. Neurol. 194: 66-75 (2005)). The neurotoxin 6-OH-DA is injected in the medial forebrain bundle (MFB), resulting in depletion of dopamine e.g. in the striatum. Upon repeated administration of L-DOPA, the animals with such a lesion display sensitization to L-DOPA, captured by rotational behaviour measured as associated with the development of LIDs. The effects of IRL790 (as a HCl-salt) on fully established AIMs have been published previously (J. Pharmacol. Exp. Ther. 374: 113-125 (2020)). Thus, in this article the administration of IRL790 was […]. […] The co-administration of said test compound with the L-DOPA was not preceded by treatment with L-DOPA. The clinically used antidyskinetic compound amantadine (as a HCl-salt) together with L-DOPA was used for comparison.
# For the evaluation of sensitization to L-DOPA the rodent unilateral 6-OH-DA-lesion model was used. Adult 150˜200 g female Sprague Dawley rats (Charles River) were housed in temperature- and humidity-controlled rooms (20° C., 53% humidity) with a 12 h dark/light cycle. The rats had access to standard food pellets and water ad libitum. The experiments were approved by the local ethical committee at Karolinska Institute (Stockholm North Ethical Committee, N1525/2017) and conducted in accordance with the European Communities Council Directive of 24 Nov. 1986 (86/609/EEC).
# Experimental procedures including unilateral 6-OH-DA-lesions and behavioral assessments were carried as follows. Rats were anesthetized using a mixture of ketamine (100 mg/kg, i.p.; Parke-Davis, Boxmeer, The Netherlands) and xylazine (10 mg/kg, i.p.; Bayer, Kiel, Germany), pretreated with a mixture of desipramine (25 mg/kg, i.p.; Sigma-Aldrich) and pargyline (5 mg/kg, i.p.; Sigma-Aldrich) 30 minutes before lesioning to prevent uptake of 6-OHDA into noradrenergic neurons, and to prevent extracellular metabolism of 6-OHDA, respectively. Rats were placed in a stereotaxic frame (David Kopf Instruments, KOPF®, USA) and injected with temgesic (0.1 mg/kg, s.c., Apoteket, Sweden) before surgery; 2 μl 6-OHDA (5 μg/μl in saline containing 0.02% w/v ascorbic acid, Sigma-Aldrich) was injected into the right MFB, stereotaxic coordinates AP: −2.5 mm, ML: −2.0 mm, DV: −8.5 mm vs. bregma and dural surface (The Rat Brain in Stereotaxic Coordinates 6th Edition, George Paxinos and Charles Watson, 2007) in order to selectively lesion dopaminergic cells in the right brain hemisphere. Post-operative analgesia (Temgesic, s.c.) was administered twice within 48 hours after surgery. Two weeks following surgery, rats were treated with apomorphine (1 mg/kg i.p.; Sigma-Aldrich) to verify successful lesioning. […]
# [2] = test system: adverse involuntary movements (AIMs); details: J. Pharmacol. Exp. Ther. 374: 113-125, July 2020; cited from earlier work
# [3] = test system: immediate early response genes (IEGs) cfos and arc; assay: Striatal gene expression analysis by qPCR in 6-OHDA-lesioned rats; format: in vivo
# Description: Data is expressed as relative gene expression and was statistically evaluated by two-way ANOVA (analysis of variance).
# Data is expressed as relative gene expression and was statistically evaluated by two-way ANOVA (analysis of variance). * denotes p<0.05, ** denotes p<0.01, and *** denotes p<0.001.
# Whenever L-DOPA was used in this study, it was administered together with benzerazid HCl-salt 7.5 mg/kg i.p, which is a standard procedure when L-DOPA is administered to rats in the unilateral 6-OHDA lesion model. Chronic treatment of four groups of rats was started with either: (1) L-DOPA (10 mg/kg), (2) [2-(3-fluoro-5-methanesulfonyl-phenoxy)ethyl](propyl)amine tartaric acid salt (3 mg/kg s.c.), (3) L-DOPA (10 mg/kg)+[2-(3-fluoro-5-methanesulfonyl-phenoxy)ethyl](propyl)amine tartaric acid salt (3 mg/kg s.c.), or (4) the corresponding vehicle (saline, i.p.) given once daily for 2 weeks. Additionally, two groups of rats were treated with either amantadine HCl salt (40 mg/kg ip), or L-DOPA (10 mg/kg)+amantadine HCl salt (40 mg/kg i.p.), once daily for 14 days. Behavioural assessments were performed on Day 1, Day 7, and Day 14 of chronic treatment. Thus, on Days 1, 7 and 14 contralateral rotations (i.e. rotations in the opposite direction to the side of the 6-OH-DA-lesion) were measured. Contralateral rotations were measured by Rotorat over 2.5 hours after the administration of test compound. […]
# [4] = as disclosed in PCT/EP2020/064046; cited from earlier work
# [5] = test system: Parkinson's patients with L-DOPA induced dyskinesia (LIDs); assay: Human clinical study, 24-hour patient home diaries (good ON time); format: in vivo
# Source text: Home diaries have gained wide acceptance as endpoints for clinical development of therapeutics aiming to reduce treatment-related motor complications. Motor fluctuations are associated with compromise in activities of daily living and health-related quality of life. In clinical trials performed by Integrative Research Laboratories Sweden AB patients record their 24-hours motor function in 30-minute intervals, beginning at midnight. For each 30-minute interval the patient rates the state he or she has been in for the past 30 minutes; OFF, ON without troublesome dyskinesia or ON with troublesome dyskinesia. The patient also denoted the time when he or she has been asleep.
# In general, an “OFF” time reduction or “good ON-time” increase of 1 hour may be considered clinically significant and has been used as an assumption in power calculations in clinical trials. Therefore, it can be assumed that shift towards more “good ON-time” of a minimum of 1-hour daily represents a clinically meaningful effect, considering the total time spent in the daily ON state (ON with and without troublesome dyskinesia) is not negatively affected by the treatment.
# A valid diary is defined as not having more than 2 hours of invalid data entries (4 invalid entries) over a given 24-hour period. An invalid diary entry is defined as more than one entry recorded in each half-hour interval, an unreadable entry, or the absence of an entry in each half-hour interval. The average diary information from 3 valid diaries (if available) for each visit will be used to calculate diary-based efficacy endpoints. If there are only 2 valid diaries for a visit, then the average information from the 2 valid diaries will be used. If only one diary is valid, information from the single valid diary will be used. If no valid diaries were available for a patient visit, then the diary information was considered missing.
# At run-in and following treatment patients were asked to complete home diaries describing their motor status in 30-minute intervals for 24 hours. […]
# [6] = Hygroscopicity test, weighed samples kept at varied humidity at 30° C. for one week; format: physicochemical; details: for Weight difference (%): 30° C., one week; for Hygroscopicity, in words: any tested relative humidity
# Description: Hygroscopicity test of the L-tartaric salt of [2-(3-fluoro-5-methanesulfonylphenoxy)-ethyl] (propyl)amine was performed by keeping exact weight samples of the salt at varied humidity at 30° C. After one week, the samples were weighed again and based on the original weight the percentage weight difference was calculated.
# [7] = Description: The temperature was 25° C. using step intervals of 10% between 0% and 95% RH in two consecutive cycles.
# [8] = once daily 2 weeks, Example 7 3 mg/kg s.c., amantadine HCl salt 40 mg/kg i.p., Day 1, 7, 14
compound,measurement,setting,value
"NC12CC3CC(CC(C3)C1)C2 [amantadine HCl salt, amantadine, reference compound]","Contralateral turns, test compound given alone",[1]; [8],no contralateral turns
"CCCNCCOc1cc(F)cc(S(C)(=O)=O)c1 [Example 2, [2-(3-fluoro-5-methanesulfonylphenoxy)ethyl](propyl)amine]",Adverse involuntary movements (AIMs),[2],dose-dependently reduced
"N[C@@H](Cc1ccc(O)c(O)c1)C(=O)O [L-DOPA, L-3,4-dihydroxyphenylalanine, reference compound]","Striatal expression of IEGs cfos and arc, L-DOPA treatment","[3]; L-DOPA, 14 days of treatment, relative gene expression",significantly increased
same,"Contralateral rotational behavior over time, L-DOPA alone","[1]; L-DOPA 10 mg/kg with benzerazid 7.5 mg/kg i.p., once daily 2 weeks, Day 1, 7, 14",increasing contralateral rotational behavior
CCCNCCOc1cc(F)cc(S(C)(=O)=O)c1 [tartaric acid salt of [2-(3-fluoro-5-methanesulfonylphenoxy)-ethyl] (propyl)amine],"Hygroscopicity, in words",[4],non-hygroscopic
"CCCNCCOc1cc(F)cc(S(C)(=O)=O)c1 [Example 7, L-tartaric Acid Salt of [2-(3-fluoro-5-methanesulfonylphenoxy)ethyl](propyl)amine]",Effect on L-DOPA-induced increase of striatal cfos and arc expression,"[3]; combination with L-DOPA, 14 days, Example 7 3 mg/kg",attenuated
same,Improvement in good ON time (mean values),"[5]; 5 mg or less (2.5 mg in some patients) twice-daily (b.i.d.), 9 patients",2.1 h
same,Improvement in good ON time (mean values),"[5]; 7.5 mg twice-daily (b.i.d.), 8 patients",5.6 h
same,Improvement in good ON time (mean values),"[5]; 10 mg or more (12.5 mg in some patients) twice-daily (b.i.d.), 20 patients",1.4 h
same,"Contralateral rotational behavior Day 7 or Day 14 vs Day 1, co-treated with L-DOPA (sensitization)","[1]; co-administered with L-DOPA 10 mg/kg once daily 2 weeks, Example 7 3 mg/kg s.c., amantadine HCl salt 40 mg/kg i.p.",no significant difference
same,"Contralateral turns, test compound given alone",[1]; [8],no contralateral turns
same,Weight difference (%),[6]; Relative Humidity 0 %,−0.26%
same,Weight difference (%),[6]; Relative Humidity 6 %,0.00%
same,Weight difference (%),[6]; Relative Humidity 11 %,−0.06%
same,Weight difference (%),[6]; Relative Humidity 22 %,0.12%
same,Weight difference (%),[6]; Relative Humidity 33 %,−0.18%
same,Weight difference (%),[6]; Relative Humidity 45 %,−0.13%
same,Weight difference (%),[6]; Relative Humidity 56 %,−0.15%
same,Weight difference (%),[6]; Relative Humidity 73 %,−0.24%
same,Weight difference (%),[6]; Relative Humidity 75 %,−0.07%
same,Weight difference (%),[6]; Relative Humidity 83 %,0.06%
same,Weight difference (%),[6]; Relative Humidity 97 %,−0.08%
same,"Hygroscopicity, in words",[6],very low hygroscopicity
same,"Hygroscopicity, in words",[6]; listed as L-tartaric acid salt,not hygroscopic at any relative humidities
"CCCNCCOc1cc(F)cc(S(C)(=O)=O)c1.Cl [Example 1 of WO 2012/143337, hydrochloric acid salt of [2-(3-fluoro-5-methanesulfonylphenoxy)-ethyl](propyl)amine]",Weight gained,"[7]; 95% relative humidity and 25° C., DVS",approximately 3%
same,"Hygroscopicity, in words",[7]; high relative humidities,hygroscopic at high relative humidities
